{"source": "patent US20160166604A1", "about": "“Thiol-Sensitive Positive Inotropes” (priority 2005, published 2016)", "key": {"[1]": {"system": "cardiomyocytes", "test": "Intracellular thiol quantitation (glutathione S-bimane fluorescence, two-photon microscopy)", "format": "cell-based, mouse", "conditions": "GSH (ethyl ester) 4 mM for 3 hrs, n=40", "source_text": "The cationic potentiometric fluorescent dye tetramethylrhodamine methyl ester (TMRM) was used to monitor changes in ΔΨm as previously described. Cortassa, S. et al., Biophys. J., 87, 2060-2073 (2004). The production of the fluorescent glutathione adduct GSB from the reaction of cell permeant monochlorobimane (MCB) with reduced glutathione (GSH), catalyzed by glutathione S-transferase, was used to measure intracellular glutathione levels, as described. Cortassa, S. et al., Biophys. J., 87, 2060-2073 (2004). Experimental recordings started after exposing the cardiomyocytes to an experimental Tyrode's solution. […] Images were recorded using a two photon laser scanning microscope (Bio-Rad MRC-1024MP) with excitation at 740 nm (Tsunami Ti:Sa laser, Spectra-Physics). The red emission of […] was collected at 605±25 nm and the blue fluorescence of GSB was collected at its maximal emission (480 nm). Images were analyzed offline using ItnageJ software (Wayne Rasband, National Institutes of Health, http://rsb.info.nih.gov/ij/). […]\nHNO targets thiol groups on selective proteins. […] Pre-treatment with GSH enhanced intracellular thiol equivalents (+6±1.5% in fluorescence a.u. vs., controls, n=40, p<0.05), as determined by fluorescence assay of glutathione S-bimane production using two-photon microscopy. […]"}, "[2]": {"system": "cAMP", "test": "cAMP FRET imaging in neonatal rat cardiomyocytes", "format": "cell-based", "conditions": "applied after AS", "description": "Primary cultures of cardiac ventricular myocytes from 1-3 days old Sprague Dawley rats (Charles River Laboratories, Wilmington, Mass.) were prepared as described. Dostal, D. E. et al., Am. J. Physiol., 263, […]-[…] (1992). Cells were transfected with a FRET-based sensor for cAMP (Zaccolo, M. et al., Science, 295, 1711-1715 (2002)) and imaged 48 hrs after transfection. During the experiments, cells were continuously perfused with HEPES buffered Ringer's modified saline (1 mmol/LCaCl2) at room temperature. Cells were imaged on an inverted Olympus IX50 microscope upon excitation at 430 nm. Mongillo, M. et al., Circ. Res., 98, 226-234 (2006). Image analysis was performed by using ImageJ (Rasband, W. S., ImageJ, National Institutes of Health, Bethesda, Md., USA). At each time point, FRET values were measured as the 480 nm/535 nm emission ratio intensity (R) and were normalized to the 480 nm/535 nm value at time 0s (R0). Agents that increase peak Ca^2+ transients coupled to increased sarcomere shortening often do so via a rise in intracellular cAMP and subsequent activation of protein kinase A ([…]. et al., Curr. Med. Chem., 10, 967-981 (2003). To test whether this applied to AS, real-time imaging of cAMP on transfected neonatal rat cardiomyocytes was performed with a cAMP FRET-probe. Zaccolo, M. et al., Science, 295, 1711-1715 (2002). Upon exposure to 1 mM AS, the FRET signal was unchanged (0.3%±0.1%, n=23, p=NS), whereas subsequent application of norepinephrine (10 μM) or phosphodiesterase inhibitor IBMX (100 μM) both increased it by 12% (p<10^-6) (FIG. 2A). Pre-treatment of adult mouse myocytes with the PKA inhibitor […]"}}, "note": "Values joined by “and” are separate entries in the source; they are usually repeats but may differ in a detail not shown here. Equal values may be shown once.", "data": [{"molecule": "CCOC(=O)CNC(=O)[C@H](CS)NC(=O)CC[C@H](N)C(=O)O", "note": "[GSH, GSH ethyl ester]", "values": [{"measurement": "increase of intracellular thiol equivalents (fluorescence a.u. vs. controls)", "setting": "[1]", "value": "6% and 6±1.5%"}]}, {"molecule": "CC(C)Cn1c(=O)n(C)c(=O)c2[nH]cnc21", "note": "[IBMX]", "values": [{"measurement": "increase of cAMP FRET signal", "setting": "[2]; IBMX 100 μM", "value": 12, "unit": "%"}]}, {"molecule": "NC[C@H](O)c1ccc(O)c(O)c1", "note": "[norepinephrine]", "values": [{"measurement": "increase of cAMP FRET signal", "setting": "[2]; norepinephrine 10 μM", "value": 12, "unit": "%"}]}]}
